Results published in patent US5932742A, “Arylsulfonylimidazolone derivatives as an antitumor agent” (priority 1996, dated 1999).
Values after ≈ are worked out from the molar mass of the structure shown. Where a name gives a salt, the structure may show the parent alone. Read-outs that look alike come from different tables or passages of the source.

Experiments:
Assay type in all cases: cell-based
[1] = system: A549 (ATCC CCL 185): human lung carcinoma; experiment: In vitro antitumor activity, MTT assay, A549; details: for IC50: Homo sapiens, A549, 48 h; for IC50 (A549): Table 1, 48 hrs
Method: (§1) In vitro antitumor activity against human tumor cell lines
(§2) In vitro antitumor activity of the compounds according to the present invention was determined by MTT assay method against the following human tumor cell lines:
A549 (ATCC CCL 185): human lung carcinoma
(§3) In this test, the known antineoplastic compounds, Doxorubicin and Sulofenur, were used as the comparative agents.
(§4) Each of the tumor cells was cultured in RPMI 1640 media containing 10% fetal bovine serum, 100 IU/ml penicillin and 100 μg/ml streptomycin, and then periodically subcultured once or twice per week in trypsin-EDTA solution containing 0.05% trypsin and 0.53mM EDTA.4Na. The human tumor cell line thus obtained (10,000cells/100 μl) was plated on 96-well microplate and then cultured for 24 hrs at 37° C. in a 5% CO2 incubator. Test compound was dissolved in DMSO, sterilized with 0.22 μm PVDF filter, and then serially 5-fold diluted from 40 μg/ml to 0.00256μg/ml. 100 μl of the sample solution thus prepared and RPMI 1640 medium only (control group) were added to 96-well microplate containing the human tumor cell, respectively. The final concentration of the test compound was in the range from 20 μg/ml to 0.00128 μg/ml and the concentration of DMSO was below 0.5%. The cells were cultured for 48 hrs at 37° C. in a 5% CO2 incubator. MTT(3-(4,5-Dimethylthiazole-2-yl)-e,5-diphenyltetrazoliumbromide) was dissolved in physiological saline in a concentration of 2 mg/ml and the resulting solution was filtered through 0.22 μm PTFE filter. 25 μl of MTT solution thus prepared was added to each well of 96-well microplate and incubated for additional 4 hrs at 37° C. in a 5% CO2 incubator. Then, the content of microplate was centrifuged at 1000 rpm for 10 min, and supernatant was removed by flicking. The formazan formed from MTT by mitochondrial succinate dehydrogenase was dissolved in 100 μl of DMSO. The absorbance of each well was measured at 540nm by micro ELISA reader and the cytotoxicity was calculated by dividing the absorbance of test group by the absorbance of control group. After the calculated cytotoxicity (%) was plotted, the concentration of 50% tumor growth inhibition concentration (IC50) was estimated by Linear-Regression method.

[2] = system: KB (ATCC CCL 17): human epidermoid carcinoma; experiment: In vitro antitumor activity, MTT assay, KB; details: MTT, 48 hrs; for IC50: Homo sapiens, read-out: IC50 (KB)
Method: as §1, §2
KB (ATCC CCL 17): human epidermoid carcinoma
as §3, §4

[3] = system: Colo205 (ATCC CCL 222): human colon adenocarcinoma; experiment: In vitro antitumor activity, MTT assay, Colo205; details: for IC50: Homo sapiens, read-out: IC50 (Colo205); for IC50 (Colo205): Table 1, 48 hrs
Method: as §1, §2
Colo205 (ATCC CCL 222): human colon adenocarcinoma
as §3, §4

[4] = system: SK-OV-3 (ATCC HTB 77): human ovarian adenocarcinoma; experiment: In vitro antitumor activity, MTT assay, SK-OV-3; details: for IC50: Homo sapiens; for IC50 (SK-OV-3): Table 1, 48 hrs
Method: as §1, §2
SK-OV-3 (ATCC HTB 77): human ovarian adenocarcinoma
as §3, §4

[5] = system: K562 (ATCC CCL 243): human chronic myelogenous leukemia; experiment: In vitro antitumor activity, MTT assay, K562; details: Homo sapiens, K562, 48 h, Table 5, read-out: IC50 (K562)
Method: as §1, §2
K562 (ATCC CCL 243): human chronic myelogenous leukemia
as §3, §4

IC50 ([1]; Table 1) [µg/mL]	IC50 ([2]; Table 1) [µg/mL]	IC50 ([3]; COLO 205, Table 1, 48 hrs) [µg/mL]	IC50 ([4]; SK-OV-3, Table 1, 48 hrs) [µg/mL]	IC50 ([1]; Table 2) [µg/mL]	IC50 ([2]; Table 2) [µg/mL]	IC50 ([3]; COLO 205, Table 2, 48 hrs) [µg/mL]	IC50 ([4]; SK-OV-3, Table 2, 48 hrs) [µg/mL]	SMILES	further results
0.374 (≈ 0.905 µM)	0.017 (≈ 0.0411 µM)	0.906 (≈ 2.19 µM)	10.1 (≈ 24.3 µM)					CCOC(=O)N1CCc2cc(S(=O)(=O)n3cc(-c4ccccc4)[nH]c3=O)ccc21 [Example 1, 4-phenyl-1-(N-ethoxycarbonylindoline-5-sulfonyl)-2-imidazolone]	
0.325 (≈ 0.788 µM)	16.7 (≈ 40.4 µM)		0.537 (≈ 1.3 µM)					CCNC(=O)N1CCc2cc(S(=O)(=O)n3cc(-c4ccccc4)[nH]c3=O)ccc21 [Example 2, 4-phenyl-1-(N-ethylcarbamoylindoline-5-sulfonyl)-2-imidazolone]	
0.111 (≈ 0.26 µM)	0.006 (≈ 0.0141 µM)	0.265 (≈ 0.621 µM)	0.509 (≈ 1.19 µM)					CCNC(=O)N1c2ccc(S(=O)(=O)n3cc(-c4ccccc4)[nH]c3=O)cc2CC1C (stereo not shown) [Example 3, 4-phenyl-1-(N-ethylcarbamoyl-2-methylindoline-5-sulfonyl)-2-imidazolone]	
0.09 (≈ 0.204 µM)	0.105 (≈ 0.238 µM)	0.519 (≈ 1.18 µM)	0.146 (≈ 0.331 µM)					CCCNC(=O)N1c2ccc(S(=O)(=O)n3cc(-c4ccccc4)[nH]c3=O)cc2CC1C (stereo not shown) [Example 5, 4-phenyl-1-(N-propylcarbamoyl-2-methylindoline-5-sulfonyl)-2-imidazolone]	
0.105 (≈ 0.238 µM)	0.162 (≈ 0.368 µM)	0.102 (≈ 0.232 µM)	1.07 (≈ 2.43 µM)					CC(C)NC(=O)N1c2ccc(S(=O)(=O)n3cc(-c4ccccc4)[nH]c3=O)cc2CC1C (stereo not shown) [Example 7, 4-phenyl-1-(N-isopropylcarbamoyl-2-methylindoline-5-sulfonyl)-2-imidazolone]	
0.02 (≈ 0.0454 µM)	0.002 (≈ 0.00454 µM)	0.549 (≈ 1.25 µM)	2.67 (≈ 6.07 µM)					CC(C)(C)NC(=O)N1CCc2cc(S(=O)(=O)n3cc(-c4ccccc4)[nH]c3=O)ccc21 [Example 8, 4-phenyl-1-(N-t-butylcarbamoylindoline-5-sulfonyl)-2-imidazolone]	
0.528 (≈ 1.08 µM)	0.045 (≈ 0.0917 µM)	0.651 (≈ 1.33 µM)	0.106 (≈ 0.216 µM)					O=C(c1ccc([N+](=O)[O-])cc1)N1CCc2cc(S(=O)(=O)n3cc(-c4ccccc4)[nH]c3=O)ccc21 [Example 9, 4-phenyl-1-[N-(4-nitrobenzoyl)indoline-5-sulfonyl]-2-imidazolone]	
0.23	0.0001	0.334	0.529					Nc1ccc(C(=O)N2CCc3cc(S(=O)(=O)n4cc(-c5ccccc5)[nH]c4=O)ccc32)cc1 [Example 10, 4-phenyl-1-[N-(4-aminobenzoyl)indoline-5-sulfonyl]-2-imidazolone.HCl]	
0.234 (≈ 0.464 µM)	0.64 (≈ 1.27 µM)	1.11 (≈ 2.2 µM)	0.453 (≈ 0.898 µM)					CC1Cc2cc(S(=O)(=O)n3cc(-c4ccccc4)[nH]c3=O)ccc2N1C(=O)c1ccc([N+](=O)[O-])cc1 (stereo not shown) [Example 11, 4-phenyl-1-[N-(4-nitrobenzoyl)-2-methylindoline-5-sulfonyl]-2-imidazolone]	
0.199 (≈ 0.447 µM)	0.028 (≈ 0.0629 µM)	0.644 (≈ 1.45 µM)	1.22 (≈ 2.73 µM)					O=C(c1ccccc1)N1CCc2cc(S(=O)(=O)n3cc(-c4ccccc4)[nH]c3=O)ccc21 [Example 13, 4-phenyl-1-(N-benzoylindoline-5-sulfonyl)-2-imidazolone]	
0.445 (≈ 0.909 µM)	0.107 (≈ 0.219 µM)	1.28 (≈ 2.62 µM)	0.926 (≈ 1.89 µM)					CCOc1ccc(C(=O)N2CCc3cc(S(=O)(=O)n4cc(-c5ccccc5)[nH]c4=O)ccc32)cc1 [Example 14, 4-phenyl-1-[N-(4-ethoxybenzoyl)indoline-5-sulfonyl]-2-imidazolone]	
0.112 (≈ 0.251 µM)	0.015 (≈ 0.0336 µM)	0.382 (≈ 0.856 µM)	0.446 (≈ 0.999 µM)					O=C(c1cccnc1)N1CCc2cc(S(=O)(=O)n3cc(-c4ccccc4)[nH]c3=O)ccc21 [Example 15, 4-phenyl-1-(N-nicotinylindoline-5-sulfonyl)-2-imidazolone]	
								O=C(c1ccco1)N1CCc2cc(S(=O)(=O)n3cc(-c4ccccc4)[nH]c3=O)ccc21 [Example 16, 4-phenyl-1-(N-furanoylindoline-5-sulfonyl)-2-imidazolone]	IC50 (A549) [1]: 0.065 µg/mL (≈ 0.149 µM); IC50 (KB) ([2]; Table 1): 0.011 µg/mL (≈ 0.0253 µM); IC50 (Colo205) [3]: 0.460 µg/mL (≈ 1.06 µM); IC50 (SK-OV-3) [4]: 2.074 µg/mL (≈ 4.76 µM)
								O=C(c1cccs1)N1CCc2cc(S(=O)(=O)n3cc(-c4ccccc4)[nH]c3=O)ccc21 [Example 17, 4-phenyl-1-(N-thiophenoylindoline-5-sulfonyl)-2-imidazolone]	IC50 (A549) [1]: 0.046 µg/mL (≈ 0.102 µM); IC50 (KB) ([2]; Table 1): 0.008 µg/mL (≈ 0.0177 µM); IC50 (Colo205) [3]: 0.386 µg/mL (≈ 0.855 µM); IC50 (SK-OV-3) [4]: 0.729 µg/mL (≈ 1.61 µM)
				0.607 (≈ 1.26 µM)	0.13 (≈ 0.271 µM)	2.05 (≈ 4.27 µM)	> 20	O=C(c1ccc(Cl)cc1)N1CCc2cc(S(=O)(=O)n3cc(-c4ccccc4)[nH]c3=O)ccc21 [Example 18, 4-phenyl-1-[N-(4-chlorobenzoyl)indoline-5-sulfonyl]-2-imidazolone]	
				0.438 (≈ 0.816 µM)	0.046 (≈ 0.0857 µM)	0.58 (≈ 1.08 µM)	0.202 (≈ 0.376 µM)	O=C(CCl)Nc1ccc(C(=O)N2CCc3cc(S(=O)(=O)n4cc(-c5ccccc5)[nH]c4=O)ccc32)cc1 [Example 19, 4-phenyl-1-[N-(4-chloroacetylaminobenzoyl)indoline-5-sulfonyl]-2-imidazolone]	
				0.509 (≈ 0.924 µM)	0.198 (≈ 0.359 µM)	0.91 (≈ 1.65 µM)	0.598 (≈ 1.09 µM)	CC1Cc2cc(S(=O)(=O)n3cc(-c4ccccc4)[nH]c3=O)ccc2N1C(=O)c1ccc(NC(=O)CCl)cc1 (stereo not shown) [Example 20, 4-phenyl-1-[N-(4-chloroacetylaminobenzoyl)-2-methylindoline-5-sulfonyl]-2-imidazolone]	
				1.13 (≈ 2.61 µM)	1.53 (≈ 3.54 µM)	0.834 (≈ 1.93 µM)	4.71 (≈ 10.9 µM)	CC1Cc2cc(S(=O)(=O)n3cc(-c4ccccc4)[nH]c3=O)ccc2N1C(=O)CCl (stereo not shown) [Example 21, 4-phenyl-1-(N-chloroacetyl-2-methylindoline-5-sulfonyl)-2-imidazolone]	
				3.24	0.688	3.8	3.08	CNCC(=O)N1c2ccc(S(=O)(=O)n3cc(-c4ccccc4)[nH]c3=O)cc2CC1C (stereo not shown) [Example 22, 4-phenyl-1-(N-methylaminoacetyl-2-methylindoline-5-sulfonyl)-2-imidazolone.HCl]	
				1.14	0.429	3.45	4.03	CC(C)NCC(=O)N1c2ccc(S(=O)(=O)n3cc(-c4ccccc4)[nH]c3=O)cc2CC1C (stereo not shown) [Example 23, 4-phenyl-1-(N-isopropylaminoacetyl-2-methylindoline-5-sulfonyl)-2-imidazolone.HCl]	
				3.48	0.879	3.35	8.77	CC(C)NCC(=O)N1CCc2cc(S(=O)(=O)n3cc(-c4ccccc4)[nH]c3=O)ccc21 [Example 24, 4-phenyl-1-(N-isopropylaminoacetylindoline-5-sulfonyl)-2-imidazolone.HCl]	
								C[C@H](N)C(=O)Nc1ccc(C(=O)N2CCc3cc(S(=O)(=O)N4C[C@H](c5ccccc5)NC4=O)ccc32)cc1 [Example 66, (S)-(+)-4-phenyl-1-[N-{4-(2-aminopropanoyl)aminobenzoyl}indoline-5-sulfonyl]-4,5-dihydro-2-imidazolone.HCl]	IC50 ([1]; Table 5): 0.112 µg/mL; IC50 ([3]; COLO 205, Table 5, 48 hrs): 0.77 µg/mL; IC50 ([4]; SK-OV-3, Table 5, 48 hrs): 0.259 µg/mL; IC50 [5]: 3.57 µg/mL
								NCC(=O)Nc1ccc(C(=O)N2CCc3cc(S(=O)(=O)N4C[C@H](c5ccccc5)NC4=O)ccc32)cc1 [Example 67, (S)-(+)-4-phenyl-1-[N-{4-(2-aminoacetyl)aminobenzoyl}indoline-5-sulfonyl]-4,5-dihydro-2-imidazolone.HCl]	IC50 ([1]; Table 5): 0.254 µg/mL; IC50 ([3]; COLO 205, Table 5, 48 hrs): 0.971 µg/mL; IC50 ([4]; SK-OV-3, Table 5, 48 hrs): 0.855 µg/mL; IC50 [5]: 1.32 µg/mL
